From the supplement of paper PMC7108870

Experiments:
HEK293sieSTAT3(Y640F) [1] = assay: drug sensitivity score (DSS), cytotoxicity CellTox Green (DSS (dimensionless)); higher = more cytotoxic; extreme values may be limits of the assay; settings: 72 h; STAT3 variant: Y640F (constitutively active)
Outline: (§1)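 HEK293 cells with a STAT3-dependent luciferase reporter, overexpressing either wild-type or mutant STAT3, were dispensed (20 μl at 100,000 cells/ml) into 384-well plates holding compounds acoustically pre-plated at 5 concentrations in 10-fold dilutions. The plates were kept for 72 hours at 37°C and 5% CO2, then CellTox Green fluorescence (485/520 nm) followed by CellTiter-Glo luminescence was read on a PHERAstar FS. Breeze was used to compute a drug sensitivity score from the dose-response curve area after normalisation to negative and positive control wells, and each value comes from one representative of two experiments.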

HEK293sieSTAT3(wt) [2] = assay: as above; settings: 72 h; STAT3 variant: wild type
Outline: as §1

HEK293sieSTAT3(Y640F) [3] = assay: drug sensitivity score (DSS), viability CellTiter-Glo (DSS (dimensionless)); higher = more growth inhibition; extreme values may be limits of the assay; settings: 72 h; STAT3 variant: Y640F (constitutively active)
Outline: as §1

HEK293sieSTAT3(wt) [4] = assay: as above; settings: 72 h; STAT3 variant: wild type
Outline: as §1

| SMILES | drug sensitivity score (HEK293sieSTAT3(Y640F) [1]) | drug sensitivity score (HEK293sieSTAT3(wt) [2]) | drug sensitivity score (HEK293sieSTAT3(Y640F) [3]) | drug sensitivity score (HEK293sieSTAT3(wt) [4]) |
| --- | --- | --- | --- | --- |
| Nc1cccc2c1CN(C1CCC(=O)NC1=O)C2=O (stereo not given) [Lenalidomide] (top concentration tested 100000 nM) | 0 | 0 | 2.66 | 2.72 |
| COc1cc2nccc(Oc3ccc(NC(=O)NC4CC4)c(Cl)c3)c2cc1C(N)=O [Lenvatinib] (top concentration tested 2500 nM) | 0 | 0 | 2.04 | 2.2 |
| C[C@]12O[C@H](C[C@]1(O)CO)n1c3ccccc3c3c4c(c5c6ccccc6n2c5c31)CNC4=O [Lestaurtinib] (top concentration tested 1000 nM) | 7.22 | 4.55 | 9.27 | 8.27 |
| N#Cc1ccc(C(c2ccc(C#N)cc2)n2cncn2)cc1 [Letrozole] (top concentration tested 10000 nM) | 0 | 0.02 | 4.14 | 0.66 |
| c1ccc([C@H]2CN3CCSC3=N2)cc1 [Levamisole] (top concentration tested 10000 nM) | 0 | 0 | 0 | 0 |
| Cc1ccc(F)c(NC(=O)Nc2ccc(-c3cccc4[nH]nc(N)c34)cc2)c1 [Linifanib] (top concentration tested 1000 nM) | 0 | 0 | 0 | 0 |
| C[C@]1(O)C[C@@H](c2nc(-c3ccc4ccc(-c5ccccc5)nc4c3)c3c(N)nccn32)C1 [Linsitinib] (top concentration tested 10000 nM) | 0 | 0 | 5.71 | 2.31 |
| Nc1nc(OCc2cc(Br)cs2)c2[nH]cnc2n1 [Lomeguatrib] (top concentration tested 10000 nM) | 0 | 0.01 | 2.48 | 0.39 |
| O=NN(CCCl)C(=O)NC1CCCCC1 [Lomustine] (top concentration tested 10000 nM) | 0 | 0 | 0 | 0 |
| NC(=O)N1CCC(CC(=O)N2CCC([C@H]3c4ncc(Br)cc4CCc4cc(Cl)cc(Br)c43)CC2)CC1 [Lonafarnib] (top concentration tested 10000 nM) | 0.03 | 1.31 | 6.11 | 8.7 |
| Cc1c(F)cc(C(=O)NC2CC2)cc1-c1ccc(C(=O)NCC(C)(C)C)cn1 [Losmapimod] (top concentration tested 10000 nM) | 0 | 0 | 0.91 | 0 |
| CC[C@H](C)C(=O)O[C@H]1C[C@@H](C)C=C2C=C[C@H](C)[C@H](CC[C@@H]3C[C@@H](O)CC(=O)O3)[C@H]21 [Lovastatin] (top concentration tested 10000 nM) | 0 | 0 | 0 | 0.12 |
| CNC(=O)c1cccc2cc(Oc3ccnc4cc(OCC5(N)CC5)c(OC)cc34)ccc12 [Lucitanib] (top concentration tested 10000 nM) | 0 | 7.65 | 1.79 | 5.26 |
| CCNC(=O)c1noc(-c2cc(C(C)C)c(O)cc2O)c1-c1ccc(CN2CCOCC2)cc1 [Luminespib] (top concentration tested 1000 nM) | 7.6 | 15.9 | 23.7 | 27.8 |
| C=CCn1c(=O)c2cnc(Nc3ccc(N4CCN(C)CC4)cc3)nc2n1-c1cccc(C(C)(C)O)n1 [MK1775] (top concentration tested 10000 nM) | 10.6 | 16.5 | 20.4 | 19.4 |
| O=C(O)CC[C@H]1CC[C@@](c2cc(F)ccc2F)(S(=O)(=O)c2ccc(Cl)cc2)CC1 [MK-0752] (top concentration tested 1000 nM) | 0 | 0 | 1.59 | 0 |
| NC1(c2ccc(-c3nc4ccn5c(=O)[nH]nc5c4cc3-c3ccccc3)cc2)CCC1 [MK-2206] (top concentration tested 1000 nM) | 0 | 0 | 3.71 | 8.2 |
| CN(C[C@@H]1COCCO1)S(=O)(=O)Nc1ccc2ccc3ncc(-c4cnn(C)c4)cc3c(=O)c2c1 [MK-2461] (top concentration tested 10000 nM) | 0 | 0 | 3.63 | 3.5 |
| O=C(c1cccc(Cl)c1F)N1CCN(Cc2cccc(Nc3nccs3)n2)CC1 [MK-8745] (top concentration tested 2500 nM) | 0 | 1.16 | 0.11 | 3.99 |
| Cn1cc(-c2cnn3c(N)c(Br)c([C@@H]4CCCNC4)nc23)cn1 [MK-8776] (top concentration tested 2500 nM) | 1.03 | 3.43 | 5.89 | 6.83 |
| Cc1cnc(-c2ccccc2C(C)C)nc1NCc1ccc(-n2ccnn2)cc1 [ML323] (top concentration tested 10000 nM) | 0 | 0 | 2.43 | 1.14 |
| CC(C)n1nc(-c2ccc3oc(N)nc3c2)c2c(N)ncnc21 [MLN-0128] (top concentration tested 1000 nM) | 0 | 1.73 | 15 | 18.7 |
| O=C(O)c1ccc(Nc2ncc3c(n2)-c2ccc(Cl)cc2C(c2c(F)cccc2F)=NC3)cc1 [MLN-8054] (top concentration tested 10000 nM) | 0 | 2.73 | 6.2 | 11 |

| SMILES | drug sensitivity score (HEK293sieSTAT3(Y640F) [1]) | drug sensitivity score (HEK293sieSTAT3(wt) [2]) | drug sensitivity score (HEK293sieSTAT3(Y640F) [3]) | drug sensitivity score (HEK293sieSTAT3(wt) [4]) |
| --- | --- | --- | --- | --- |
| O=C(Nc1cccc(NC(=O)c2cccc(O)c2O)c1)c1cccc(O)c1O [MST-312] (top concentration tested 10000 nM) | 1.09 | 6.46 | 6.74 | 13.2 |
| CNC(=O)[C@@H](NC(=O)[C@H](CC(C)C)[C@H](O)C(=O)NO)C(C)(C)C [Marimastat] (top concentration tested 10000 nM) | 0 | 0 | 1.16 | 1.16 |
| Cc1ccc(NC(=O)c2ccc(CN3CCN(C)CC3)cc2)cc1Nc1nc(-c2cccnc2)cs1 [Masitinib] (top concentration tested 10000 nM) | 0.7 | 5.99 | 4.59 | 7.57 |
| CC(=O)O[C@]1(C(C)=O)CC[C@H]2[C@@H]3C=C(C)C4=CC(=O)CC[C@]4(C)[C@H]3CC[C@@]21C [Megestrol acetate] (top concentration tested 10000 nM) | 0 | 0 | 3.65 | 0.97 |
| N[C@@H](Cc1ccc(N(CCCl)CCCl)cc1)C(=O)O [Melphalan] (top concentration tested 12500 nM) | 0 | 0 | 1.69 | 0 |
| CCN(CC)CCCC(C)Nc1c2ccc(Cl)cc2nc2ccc(OC)cc12 (stereo not given) [Mepacrine] (top concentration tested 50000 nM) | 18.1 | 19.7 | 21.1 | 21.4 |
| S=c1[nH]cnc2nc[nH]c12 [Mercaptopurine] (top concentration tested 10000 nM) | 0 | 0 | 7.54 | 7.64 |
| Cc1ccc(C(=O)Nc2ccc(Oc3cc4cnn(C)c4cc3-c3cn[nH]c3)c(F)c2)c(=O)n1-c1ccc(F)cc1 [Merestinib] (top concentration tested 1000 nM) | 0 | 0 | 4.06 | 1.38 |
| CN(C)C(=N)NC(=N)N [Metformin] (top concentration tested 100000 nM) | 0 | 2.32 | 0.22 | 2.41 |
| CN(Cc1cnc2nc(N)nc(N)c2n1)c1ccc(C(=O)N[C@@H](CCC(=O)O)C(=O)O)cc1 [Methotrexate] (top concentration tested 5000 nM) | 0 | 1.17 | 26.1 | 17 |
| C[C@H]1C[C@@H]2[C@H]([C@@H](O)C[C@@]3(C)[C@H]2CC[C@]3(O)C(=O)CO)[C@@]2(C)C=CC(=O)C=C12 [Methylprednisolone] (top concentration tested 10000 nM) | 0 | 0 | 2.04 | 1.52 |
| CO[C@@H]1[C@H](N(C)C(=O)c2ccccc2)C[C@H]2O[C@]1(C)n1c3ccccc3c3c4c(c5c6ccccc6n2c5c31)C(=O)NC4 [Midostaurin] (top concentration tested 10000 nM) | 0 | 2.79 | 5.01 | 4.05 |
| CNC(=O)c1nn(C)c2c1C(C)(C)Cc1cnc(Nc3ccc(N4CCN(C)CC4)cc3)nc1-2 [Milciclib] (top concentration tested 10000 nM) | 1 | 7.5 | 11.2 | 15 |
| CO[C@@]12[C@H](COC(N)=O)C3=C(C(=O)C(C)=C(N)C3=O)N1C[C@@H]1N[C@@H]12 [Mitomycin C] (top concentration tested 10000 nM) | 0.86 | 1.95 | 14.5 | 5.72 |
| Clc1ccc(C(c2ccccc2Cl)C(Cl)Cl)cc1 (stereo not given) [Mitotane] (top concentration tested 10000 nM) | 0 | 0 | 0 | 0 |
| O=C1c2c(O)ccc(O)c2C(=O)c2c(NCCNCCO)ccc(NCCNCCO)c21 [Mitoxantrone] (top concentration tested 1000 nM) | 0.1 | 0.93 | 10.6 | 9.78 |
| Nc1ccccc1NC(=O)c1ccc(CNc2nccc(-c3cccnc3)n2)cc1 [Mocetinostat] (top concentration tested 10000 nM) | 2.68 | 6.57 | 11.5 | 13.1 |
| N#CCNC(=O)c1ccc(-c2ccnc(Nc3ccc(N4CCOCC4)cc3)n2)cc1 [Momelotinib] (top concentration tested 10000 nM) | 3.84 | 5.09 | 7.37 | 5.53 |
| CC1(C)CNc2cc(NC(=O)c3cccnc3NCc3ccncc3)ccc21 [Motesanib] (top concentration tested 10000 nM) | 0.35 | 0.6 | 2.6 | 1.53 |
| FC(F)(F)c1ccc(/C=C/c2nc(COc3ccc(CCCCn4ccnn4)cc3)co2)cc1 [Mubritinib] (top concentration tested 1000 nM) | 0 | 0.57 | 8.41 | 5.94 |
| Cc1cc(OCc2nnc(SC3CCCC3)n2-c2cccnc2)ccc1-c1ccc(S(C)(=O)=O)cc1 [NMS-873] (top concentration tested 10000 nM) | 6.39 | 7.29 | 11.8 | 12.5 |
| CCN1CCN(Cc2ccc(-c3cc4c(N[C@H](C)c5ccccc5)ncnc4[nH]3)cc2)CC1 [NVP-AEE788] (top concentration tested 2500 nM) | 0 | 0.32 | 1.43 | 1.25 |
